{"source": "patent US20260130404A1", "about": "“SWEETNESS AND TASTE IMPROVEMENT OF NON-SUCROSE SWEETENERS WITH D-SUGARS OR L-SUGARS” (The Coca-Cola Company, priority 2022, published 2026)", "key": {"[1]": {"system": "panelists", "assay": "Sensory panel paired comparison of lemon-lime beverages with Reb M", "assay_type": "in vivo", "conditions": "1% in a lemon-lime matrix containing 475 ppm rebaudioside M", "procedure": "(§1) The ingredients were dissolved in filtered water to constitute a syrup, then the final beverage was made by weighing the appropriate syrup amount and adding carbonated water using a ratio of 1-part syrup+5.4 parts carbonated water to target a carbonation of 3.8 volumes of CO2. Final beverages were filled in 300 ml glass bottles and served cold (4° C.). A sensory panel was provided with the D-glucose (@1%) containing beverage of Table 1 and the control shown therein. The beverages were evaluated blindly by six or seven panelists. Samples were coded and randomly presented to the panelists. Panelists were instructed to eat an unsalted cracker and rinse the mouth with water before and in between the samples. For each sample, panelists were instructed to taste, then write down their evaluation comments in paired comparison test between control and prototypes. Panelists ranked higher the sample that had higher sweet intensity, fast sweet onset, more sugar like mouthfeel, less sweet linger, less bitter and overall best tasting. […] Samples were coded and randomly presented to the panelists. Panelists were instructed to eat an unsalted cracker and rinse the mouth with water before and in between the samples. […]"}, "[2]": {"system": "panelists", "assay": "Sensory panel paired comparison of lemon-lime beverages with Siamenoside I", "assay_type": "in vivo", "conditions": "2% in a lemon-lime matrix containing 600 ppm Siamenoside I", "procedure": "as §1, with “Table 4” for “Table 1”"}, "[3]": {"system": "human sense of taste", "conditions": "cited from earlier work"}, "[4]": {"system": "human sense of taste", "conditions": "cited from earlier work", "remark": "listed apart in the source"}, "[5]": {"system": "taste panelists", "conditions": "background statement; cited from earlier work"}, "[6]": {"conditions": "lowest known concentration perceivable as sweet, ppm equivalent of the mM value"}, "[7]": {"conditions": "lowest known concentration perceivable by the human sense of taste as sweet"}}, "note": "Like-named read-outs stand apart in the source and are kept apart here."}
{"smiles": "O=C[C@@H](O)[C@H](O)[C@@H](O)[C@@H](O)CO", "note": "[L-glucose]", "values": [{"measurement": "taste modulation (sensory testing, FIG. 1 and 2)", "setting": "[1]", "result": "effective taste modulator"}, {"measurement": "taste modulation (sensory testing, FIG. 3 and 4)", "setting": "[2]", "result": "effective taste modulator"}, {"measurement": "sweetness recognition threshold concentration", "setting": "[3]; [6]", "result": "about 5765 ppm"}, {"measurement": "sweetness recognition threshold concentration", "setting": "[3]; [7]", "result": "about 32±7 mM"}]}
{"smiles": "O=C[C@H](O)[C@@H](O)[C@H](O)[C@H](O)CO", "note": "[D-glucose]", "values": [{"measurement": "taste modulation (sensory testing, FIG. 1 and 2)", "setting": "[1]", "result": "effective taste modulator"}, {"measurement": "taste modulation (sensory testing, FIG. 3 and 4)", "setting": "[2]", "result": "effective taste modulator"}, {"measurement": "sweetness recognition threshold concentration", "setting": "[3]; [6]", "result": "about 7386 ppm"}, {"measurement": "sweetness recognition threshold concentration", "setting": "[3]; [7]", "result": "about 41±6 mM"}, {"measurement": "detection threshold concentration", "setting": "[4]; lowest known concentration perceivable by the human sense of taste", "result": "about 13 mM"}, {"measurement": "detection threshold concentration", "setting": "[4]; lowest known concentration perceivable, ppm equivalent of the mM value", "result": "about 2342 ppm"}]}
{"smiles": "C=C1C[C@@]23CC[C@H]4[C@@](C)(CCC[C@@]4(C)C(=O)O[C@@H]4O[C@H](CO)[C@@H](O)[C@H](O[C@@H]5O[C@H](CO)[C@@H](O)[C@H](O)[C@H]5O)[C@H]4O[C@@H]4O[C@H](CO)[C@@H](O)[C@H](O)[C@H]4O)[C@@H]2CC[C@]1(O[C@@H]1O[C@H](CO)[C@@H](O)[C@H](O[C@@H]2O[C@H](CO)[C@@H](O)[C@H](O)[C@H]2O)[C@H]1O[C@@H]1O[C@H](CO)[C@@H](O)[C@H](O)[C@H]1O)C3", "note": "[rebaudioside M]", "values": [{"measurement": "maximal sucrose equivalence", "setting": "[5]", "result": "greater than 10%"}]}
{"smiles": "C=C1C[C@@]23CC[C@H]4[C@@](C)(CCC[C@@]4(C)C(=O)O[C@@H]4O[C@H](CO)[C@@H](O)[C@H](O)[C@H]4O)[C@@H]2CC[C@]1(O[C@@H]1O[C@H](CO)[C@@H](O)[C@H](O[C@@H]2O[C@H](CO)[C@@H](O)[C@H](O)[C@H]2O)[C@H]1O[C@@H]1O[C@H](CO)[C@@H](O)[C@H](O)[C@H]1O)C3", "note": "[rebaudioside A]", "values": [{"measurement": "maximal sucrose equivalence", "setting": "[5]", "result": "≤ 10", "unit": "%"}]}
